From patent publication US20220153734A1, “Pyrazolopyridine Compounds For IRE1 Inhibition” (Optikira, LLC, priority 2019, published 2022)

How the values were obtained:
[1] = test system: ARPE-19 cells stably expressing XBP1 (a.a. 1-376); experiment: Cellular XBP1 splicing assay (NanoLuc luciferase, thapsigargin); format: cell-based; conditions: Homo sapiens, ARPE-19, 4 h, thapsigargin 150 nM
In short: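 ARPE-19 cells carrying an XBP1(1-376)-NanoLuc splicing reporter were pretreated with compound (10-point ½-log series, 0.117% DMSO) for 30 min, then stressed with 150 nM thapsigargin for 4 h at 37° C. Luminescence was read, and IC50 values came from sigmoidal fits of percent inhibition of control.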

[2] = target: T1, IRE1α (Homo sapiens, UniProt O75460); experiment: Biochemical assay: inhibition of RNase activity of IRE1α; conditions: enzyme 0.325 nM, substrate 100 nM, 20 minutes
T1 construct: purchased Signal Chem E31-11G
In short: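 Recombinant IRE1α (0.325 nM final) pre-incubated 30 min at room temperature with compounds (10-point ½-log series, duplicate, 4% DMSO final). Then 100 nM fluorophore/quencher-labelled RNA substrate added in 50 mM Tris, 0.5 mM MgCl2, 10 mM KCl, 2 mM DTT. Urea stop after 20 min; fluorescence read; IC50 from sigmoidal fit.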

[3] = target: T1, IRE1α; experiment: Biochemical assay to detect inhibition of kinase activity of IRE1α (ADP-Glo)
Experimental: Biochemical Assays to Detect Inhibition of Kinase Activity of IRE1α
The kinase reactions were performed in 384 well white ProxiPlate-384 Plus plates (PERKIN Elmer 6008280) using 25 mM MOPS assay buffer with 1 mM dithiothreitol, 25 mM MgCl2, 12.5 mM β-glycerophosphate, 5 mM EGTA, and 50 μg/mL BSA. Test compounds were prepared on the day of assay and dispensed using D300 digital dispenser as a 10-point ½ log dilution series in duplicate, normalized to a final DMSO concentration of 3%. Test compounds were pre-incubated for 30 min at room temperature with 10 nM IRE1α kinase (E31-11G from Signal Chem) in 2.5 μL of assay buffer and the reaction started by addition of 2.5 μL of ATP in assay buffer, to give a final ATP concentration of 100 μM and 5 nM IRE1α kinase. After 4 hours incubation at room temperature the reactions were stopped and the kinase activity determined using the ADP-Glo™ reagent from Promega, according to the manufacturer's instructions. Luminescence was measured on a luminometer (EnVision, PerkinElmer) and IC50 values calculated by fitting a sigmoidal curve to percent inhibition of control versus Log10 of compound concentration.

T1 sequence (O75460 468-977 limits assumed): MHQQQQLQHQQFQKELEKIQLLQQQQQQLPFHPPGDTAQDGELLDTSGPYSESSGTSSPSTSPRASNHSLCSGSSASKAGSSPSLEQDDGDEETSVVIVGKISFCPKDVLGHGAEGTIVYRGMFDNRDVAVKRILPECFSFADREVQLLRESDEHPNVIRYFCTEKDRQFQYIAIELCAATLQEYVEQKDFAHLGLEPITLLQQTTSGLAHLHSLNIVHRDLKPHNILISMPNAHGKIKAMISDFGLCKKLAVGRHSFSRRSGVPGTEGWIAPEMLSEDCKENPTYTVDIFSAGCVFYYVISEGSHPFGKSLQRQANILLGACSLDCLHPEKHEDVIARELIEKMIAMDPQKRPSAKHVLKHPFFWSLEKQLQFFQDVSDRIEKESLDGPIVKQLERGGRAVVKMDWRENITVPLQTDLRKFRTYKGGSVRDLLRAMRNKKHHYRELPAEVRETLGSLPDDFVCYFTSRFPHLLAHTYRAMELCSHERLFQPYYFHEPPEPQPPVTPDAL

Structure (SMILES)	IC50 [1] [nM]	IC50 [2] [nM]	IC50 [3] [nM]
CCn1nc(-c2cc(F)c(NS(=O)(=O)Cc3ccccc3Cl)cc2F)c2c(N)ncc([C@H]3CC[C@H](NC4COC4)CC3)c21 [Compound A42, N-(4-(4-amino-1-ethyl-7-((1r,4r)-4-(oxetan-3-ylamino)cyclohexyl)-1H-pyrazolo[4,3-c]pyridin-3-yl)-2,5-difluorophenyl)-1-(2-chlorophenyl)methanesulfonamide]	19	3.2	3
CCn1nc(-c2cc(F)c(NS(=O)(=O)c3ccccc3Cl)cc2F)c2c(N)ncc([C@H]3CC[C@H](NC4COC4)CC3)c21 [Compound A44, N-(4-(4-amino-1-ethyl-7-((1r,4r)-4-(oxetan-3-ylamino)cyclohexyl)-1H-pyrazolo[4,3-c]pyridin-3-yl)-2,5-difluorophenyl)-2-chlorobenzenesulfonamide]	31	8.2	2.8
CCn1nc(-c2cc(F)c(NS(=O)(=O)c3ccccc3F)cc2F)c2c(N)ncc([C@H]3CC[C@H](NC4COC4)CC3)c21 [Compound A45, N-(4-(4-amino-1-ethyl-7-((1r,4r)-4-(oxetan-3-ylamino)cyclohexyl)-1H-pyrazolo[4,3-c]pyridin-3-yl)-2,5-difluorophenyl)-2-fluorobenzenesulfonamide]	94	16	6.5
CC(C)n1nc(-c2cc(F)c(NS(=O)(=O)c3ccccc3Cl)cc2F)c2c(N)ncc([C@H]3CC[C@H](NC4COC4)CC3)c21 [Compound A49, N-(4-(4-amino-1-isopropyl-7-((1r,4r)-4-(oxetan-3-ylamino)cyclohexyl)-1H-pyrazolo[4,3-c]pyridin-3-yl)-2,5-difluorophenyl)-2-chlorobenzenesulfonamide]	4.3	6	2.1
CC(C)n1nc(-c2ccc(NS(=O)(=O)Cc3ccccc3Cl)c(F)c2)c2c(N)ncc([C@H]3CC[C@H](N(C)C)CC3)c21 [Compound A51, N-(4-(4-amino-7-((1r,4r)-4-(dimethylamino)cyclohexyl)-1-isopropyl-1H-pyrazolo[4,3-c]pyridin-3-yl)-2-difluorophenyl)-1-(2-chlorophenyl)methanesulfonamide]	2	0.5	2.7
CCn1nc(-c2ccc(NS(=O)(=O)c3ccccc3Cl)c(F)c2)c2c(N)ncc([C@H]3CC[C@H](NC4COC4)CC3)c21 [Compound A52, N-(4-(4-amino-1-ethyl-7-((1r,4r)-4-(oxetan-3-ylamino)cyclohexyl)-1H-pyrazolo[4,3-c]pyridin-3-yl)-2-fluorophenyl)-2-chlorobenzenesulfonamide]	15	6.1	4.6

More lines, now with the values ahead:

IC50 [1] [nM]	IC50 [2] [nM]	IC50 [3] [nM]	Structure (SMILES)
52	5.4	3.2	CCn1nc(-c2cc(F)c(NS(=O)(=O)Cc3ccccc3F)cc2F)c2c(N)ncc([C@H]3CC[C@H](NC4COC4)CC3)c21 [Compound A43, N-(4-(4-amino-1-ethyl-7-((1r,4r)-4-(oxetan-3-ylamino)cyclohexyl)-1H-pyrazolo[4,3-c]pyridin-3-yl)-2,5-difluorophenyl)-1-(2-fluorophenyl)methanesulfonamide]
8.4	7.7	3.6	CC(C)n1nc(-c2ccc(NS(=O)(=O)c3ccccc3F)c(F)c2)c2c(N)ncc([C@H]3CC[C@H](N(C)C4COC4)CC3)c21 [Compound A46]
5.6	1.3	2	CC(C)n1nc(-c2cc(F)c(NS(=O)(=O)Cc3ccccc3Cl)cc2F)c2c(N)ncc([C@H]3CC[C@H](NC4COC4)CC3)c21 [Compound A47, N-(4-(4-amino-1-isopropyl-7-((1r,4r)-4-(oxetan-3-ylamino)cyclohexyl)-1H-pyrazolo[4,3-c]pyridin-3-yl)-2,5-difluorophenyl)-1-(2-chlorophenyl)methanesulfonamide]
6.4	1.9	1.6	CC(C)n1nc(-c2cc(F)c(NS(=O)(=O)Cc3ccccc3F)cc2F)c2c(N)ncc([C@H]3CC[C@H](NC4COC4)CC3)c21 [Compound A48, N-(4-(4-amino-1-isopropyl-7-((1r,4r)-4-(oxetan-3-ylamino)cyclohexyl)-1H-pyrazolo[4,3-c]pyridin-3-yl)-2,5-difluorophenyl)-1-(2-fluorophenyl)methanesulfonamide]
17	6.9	3.3	CC(C)n1nc(-c2cc(F)c(NS(=O)(=O)c3ccccc3F)cc2F)c2c(N)ncc([C@H]3CC[C@H](NC4COC4)CC3)c21 [Compound A50, N-(4-(4-amino-1-isopropyl-7-((1r,4r)-4-(oxetan-3-ylamino)cyclohexyl)-1H-pyrazolo[4,3-c]pyridin-3-yl)-2,5-difluorophenyl)-2-fluorobenzenesulfonamide]
9.2	1.5	1.9	CCn1nc(-c2ccc(NS(=O)(=O)Cc3ccccc3F)c(F)c2)c2c(N)ncc([C@H]3CC[C@H](NC4COC4)CC3)c21 [Compound A53, N-(4-(4-amino-1-ethyl-7-((1r,4r)-4-(oxetan-3-ylamino)cyclohexyl)-1H-pyrazolo[4,3-c]pyridin-3-yl)-2-fluorophenyl)-1-(2-fluorophenyl)methanesulfonamide]
2.5	0.4	0.9	CC(C)n1nc(-c2ccc(NS(=O)(=O)Cc3ccccc3F)c(F)c2)c2c(N)ncc([C@H]3CC[C@H](NC4COC4)CC3)c21 [Compound A57, N-(4-(4-amino-1-isopropyl-7-((1r,4r)-4-(oxetan-3-ylamino)cyclohexyl)-1H-pyrazolo[4,3-c]pyridin-3-yl)-2-fluorophenyl)-1-(2-fluorophenyl)methanesulfonamide]
